Data from ChEMBL document CHEMBL1201862, “PubChem BioAssay data set” (2004).
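Each compound was tested at five concentrations against cells in 96-well plates for 48 hours. GI50 marks 50% less growth.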 Calls of active or inactive are those of the source. Rule as the data show it: active = GI50 up to about 1.1 µM and inactive = higher.

How the values were obtained:
Assay in all cases: NCI-60 cell line screen, 48 h
M14 = tested on: M14
RPMI-8226 = tested on: RPMI-8226
CAKI-1 = tested on: CAKI-1
SK-MEL-2 = tested on: SK-MEL-2
NCI-H226 = tested on: NCI-H226
COLO 205 = tested on: COLO 205
LOX IMVI = tested on: LOX IMVI
786-0 = tested on: 786-0
HCT-116 = tested on: HCT-116
HOP-18 = tested on: HOP-18
MOLT-4 = tested on: MOLT-4
Malme-3M = tested on: Malme-3M
HCC 2998 = tested on: HCC 2998
SNB-75 = tested on: SNB-75
HT-29 = tested on: HT-29
SF-295 = tested on: SF-295
SK-MEL-28 = tested on: SK-MEL-28
OVCAR-3 = tested on: OVCAR-3
SK-OV-3 = tested on: SK-OV-3
NCI-H522 = tested on: NCI-H522
NCI-H23 = tested on: NCI-H23
OVCAR-8 = tested on: OVCAR-8
K562 = tested on: K562
CCRF-CEM = tested on: CCRF-CEM
M19-MEL = tested on: M19-MEL
RXF 631 = tested on: RXF 631
IGROV-1 = tested on: IGROV-1
U-251 = tested on: U-251
HOP-92 = tested on: HOP-92
OVCAR-5 = tested on: OVCAR-5
UACC-62 = tested on: UACC-62
DMS-273 = tested on: DMS-273
OVCAR-4 = tested on: OVCAR-4
LXFL 529 = tested on: LXFL 529
SNB-19 = tested on: SNB-19
SW-620 = tested on: SW-620
SNB-78 = tested on: SNB-78
HOP-62 = tested on: HOP-62
HCT-15 = tested on: HCT-15
NCI-H460 = tested on: NCI-H460
HL-60 = tested on: HL-60
SF-268 = tested on: SF-268
UACC-257 = tested on: UACC-257
XF498 = tested on: XF498
EKVX = tested on: EKVX
A549 = tested on: A549
SR = tested on: SR
DLD-1 = tested on: DLD-1
KM12 = tested on: KM12
SK-MEL-5 = tested on: SK-MEL-5
A498 = tested on: A498
UO-31 = tested on: UO-31
KM-20L2 = tested on: KM-20L2
SN12C = tested on: SN12C
SF-539 = tested on: SF-539
RXF 393 = tested on: RXF 393
ACHN = tested on: ACHN
TK-10 = tested on: TK-10
DMS-114 = tested on: DMS-114

For NCCc1ccc2oc3cc(=O)c4ccccc4c-3nc2c1, the GI50 (M14) was 1.71 µM (inactive), the GI50 (RPMI-8226) was 2.55 µM (inactive) and the GI50 (CAKI-1) was 11.5 µM (inactive). For the same compound, the GI50 (SK-MEL-2) was 1.71 µM (inactive), the GI50 (NCI-H226) was 5.19 µM (inactive) and the GI50 (COLO 205) was 0.428 µM (active). For the same compound, the GI50 (LOX IMVI) was 1.24 µM (inactive), the GI50 (786-0) was 2.12 µM (inactive) and the GI50 (HCT-116) was 1.41 µM (inactive). The GI50 (HOP-18) was 1 µM (active), the GI50 (MOLT-4) was 1.9 µM (inactive) and the GI50 (Malme-3M) was 2.12 µM (inactive). For the same compound, the GI50 (HCC 2998) was 2.37 µM (inactive), the GI50 (SNB-75) was 2.22 µM (inactive) and the GI50 (HT-29) was 1.82 µM (inactive). The GI50 (SF-295) was 2.3 µM (inactive), the GI50 (SK-MEL-28) was 3.81 µM (inactive) and the GI50 (OVCAR-3) was 2.16 µM (inactive). For the same compound, the GI50 (SK-OV-3) was 12.1 µM (inactive), the GI50 (NCI-H522) was 2.59 µM (inactive) and the GI50 (NCI-H23) was 0.746 µM (active). For the same compound, the GI50 (OVCAR-8) was 4.91 µM (inactive), the GI50 (K562) was 2.02 µM (inactive) and the GI50 (CCRF-CEM) was 1.79 µM (inactive). For the same compound, the GI50 (M19-MEL) was 0.3 µM (active), the GI50 (RXF 631) was 2.96 µM (inactive) and the GI50 (IGROV-1) was 2.59 µM (inactive). The GI50 (U-251) was 2.62 µM (inactive), the GI50 (HOP-92) was 7.71 µM (inactive) and the GI50 (OVCAR-5) was 6.14 µM (inactive). For the same compound, the GI50 (UACC-62) was 4.37 µM (inactive), the GI50 (DMS-273) was 1.36 µM (inactive) and the GI50 (OVCAR-4) was 4.68 µM (inactive). The GI50 (LXFL 529) was 2.58 µM (inactive), the GI50 (SNB-19) was 2.71 µM (inactive) and the GI50 (SW-620) was 2.19 µM (inactive). The GI50 (SNB-78) was 9.35 µM (inactive), the GI50 (HOP-62) was 3.09 µM (inactive) and the GI50 (HCT-15) was 0.966 µM. For the same compound, the GI50 (NCI-H460) was 0.9 µM (active), the GI50 (HL-60) was 1.68 µM (inactive) and the GI50 (SF-268) was 3.85 µM (inactive). For the same compound, the GI50 (UACC-257) was 2.37 µM (inactive), the GI50 (XF498) was 3.41 µM (inactive) and the GI50 (EKVX) was 11.6 µM (inactive). The GI50 (A549) was 0.478 µM (active), the GI50 (SR) was 1.62 µM (inactive) and the GI50 (DLD-1) was 2.04 µM (inactive). For the same compound, the GI50 (KM12) was 2.67 µM (inactive), the GI50 (SK-MEL-5) was 0.705 µM (active) and the GI50 (A498) was 13.3 µM (inactive). For the same compound, the GI50 (UO-31) was 2.14 µM (inactive), the GI50 (KM-20L2) was 2.75 µM (inactive) and the GI50 (SN12C) was 2.22 µM (inactive). For the same compound, the GI50 (SF-539) was 2.6 µM (inactive), the GI50 (RXF 393) was 2.84 µM (inactive) and the GI50 (ACHN) was 2.61 µM (inactive). The GI50 (TK-10) was 14 µM (inactive) and the GI50 (DMS-114) was 1.08 µM (active).

COc1ccccc1NC(=O)C1=C(C)NC(C)=C(C(=O)Nc2ccccc2OC)C1c1ccc([N+](=O)[O-])cc1 was tested, and the GI50 (M14) was 85.7 µM (inactive), the GI50 (RPMI-8226) was 18.5 µM (inactive) and the GI50 (CAKI-1) was 21.7 µM (inactive). The GI50 (SK-MEL-2) was 74.5 µM (inactive), the GI50 (NCI-H226) was > 100 µM (inactive) and the GI50 (COLO 205) was 56.2 µM (inactive). For the same compound, the GI50 (LOX IMVI) was 48.9 µM (inactive), the GI50 (786-0) was 99.5 µM (inactive) and the GI50 (HCT-116) was 60.5 µM (inactive). For the same compound, the GI50 (HOP-18) was > 100 µM (inactive), the GI50 (MOLT-4) was 7.23 µM (inactive) and the GI50 (Malme-3M) was > 100 µM (inactive). For the same compound, the GI50 (SNB-75) was > 100 µM (inactive), the GI50 (HT-29) was 80.5 µM (inactive) and the GI50 (SF-295) was 13.4 µM (inactive). For the same compound, the GI50 (SK-MEL-28) was 27 µM (inactive), the GI50 (OVCAR-3) was > 100 µM (inactive) and the GI50 (SK-OV-3) was > 100 µM (inactive). The GI50 (NCI-H522) was 24.4 µM (inactive), the GI50 (NCI-H23) was 58.6 µM (inactive) and the GI50 (OVCAR-8) was > 100 µM (inactive). For the same compound, the GI50 (K562) was 49.3 µM (inactive), the GI50 (CCRF-CEM) was 19.5 µM (inactive) and the GI50 (RXF 631) was 56.8 µM (inactive). For the same compound, the GI50 (IGROV-1) was > 100 µM (inactive), the GI50 (U-251) was 86.1 µM (inactive) and the GI50 (OVCAR-5) was 22.4 µM (inactive). For the same compound, the GI50 (UACC-62) was 59.6 µM (inactive), the GI50 (DMS-273) was 86.7 µM (inactive) and the GI50 (OVCAR-4) was 56.2 µM (inactive). The GI50 (LXFL 529) was 48.2 µM (inactive), the GI50 (SNB-19) was 89.1 µM (inactive) and the GI50 (SW-620) was 93.1 µM (inactive). For the same compound, the GI50 (SNB-78) was > 100 µM (inactive), the GI50 (HOP-62) was > 100 µM (inactive) and the GI50 (HCT-15) was over 100 µM. For the same compound, the GI50 (NCI-H460) was 28.8 µM (inactive), the GI50 (HL-60) was 39.2 µM (inactive) and the GI50 (SF-268) was > 100 µM (inactive). For the same compound, the GI50 (UACC-257) was > 100 µM (inactive), the GI50 (XF498) was 3.5 µM (inactive) and the GI50 (EKVX) was 82.6 µM (inactive). The GI50 (A549) was > 100 µM (inactive), the GI50 (SR) was 67.5 µM (inactive) and the GI50 (DLD-1) was 46.6 µM (inactive). The GI50 (KM12) was 51.6 µM (inactive), the GI50 (SK-MEL-5) was 30.7 µM (inactive) and the GI50 (A498) was > 100 µM (inactive). The GI50 (KM-20L2) was > 100 µM (inactive), the GI50 (SN12C) was > 100 µM (inactive) and the GI50 (SF-539) was > 100 µM (inactive). The GI50 (RXF 393) was 60.4 µM (inactive), the GI50 (ACHN) was 52.8 µM (inactive) and the GI50 (TK-10) was 74.5 µM (inactive). For the same compound, the GI50 (DMS-114) was 9.12 µM (inactive).
